Test results reported in PubChem BioAssay (NCI).
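Where inhibition never reached the appropriate level, the endpoint shown equals the highest concentration tested. Otherwise, values were interpolated linearly from a five-concentration, 48-hour dose response in 96-well plates. GI50 is the concentration that inhibits growth by half. The concentration for full growth arrest is given as TGI.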

How the values were obtained:
Assay in all cases: NCI tumour cell line growth inhibition, 48 h
MCF7 breast = test system: MCF7 breast
SK-OV-3 ovarian = test system: SK-OV-3 ovarian
MOLT-4 leukemia = test system: MOLT-4 leukemia
SK-MEL-28 melanoma = test system: SK-MEL-28 melanoma
HCT-116 colon = test system: HCT-116 colon
HS 578T breast = test system: HS 578T breast
OVCAR-5 ovarian = test system: OVCAR-5 ovarian
HL-60(TB) leukemia = test system: HL-60(TB) leukemia
NCI-H23 lung = test system: NCI-H23 lung
NCI-H460 lung = test system: NCI-H460 lung
A498 renal = test system: A498 renal
IGROV1 ovarian = test system: IGROV1 ovarian
SK-MEL-5 melanoma = test system: SK-MEL-5 melanoma
HOP-92 NSCLC = test system: HOP-92 NSCLC
UACC-257 melanoma = test system: UACC-257 melanoma
T-47D breast = test system: T-47D breast
OVCAR-3 ovarian = test system: OVCAR-3 ovarian
SW-620 colon = test system: SW-620 colon
MDA-MB-435 = test system: MDA-MB-435
SF-295 CNS = test system: SF-295 CNS
CCRF-CEM leukemia = test system: CCRF-CEM leukemia
SF-539 CNS = test system: SF-539 CNS
MALME-3M melanoma = test system: MALME-3M melanoma
BT-549 breast = test system: BT-549 breast
COLO 205 colon = test system: COLO 205 colon
OVCAR-4 ovarian = test system: OVCAR-4 ovarian
NCI-H226 lung = test system: NCI-H226 lung
NCI/ADR-RES ovarian = test system: NCI/ADR-RES ovarian
ACHN renal = test system: ACHN renal
PC-3 prostate = test system: PC-3 prostate
OVCAR-8 ovarian = test system: OVCAR-8 ovarian
786-0 renal = test system: 786-0 renal
CAKI-1 renal = test system: CAKI-1 renal
MDA-MB-231 breast = test system: MDA-MB-231 breast
SR leukemia = test system: SR leukemia
A549 NSCLC = test system: A549 NSCLC
K-562 leukemia = test system: K-562 leukemia
U251 CNS = test system: U251 CNS
TK-10 renal = test system: TK-10 renal
SF-268 CNS = test system: SF-268 CNS
UACC-62 melanoma = test system: UACC-62 melanoma
EKVX NSCLC = test system: EKVX NSCLC
SK-MEL-2 melanoma = test system: SK-MEL-2 melanoma
RPMI-8226 leukemia = test system: RPMI-8226 leukemia
HCT-15 colon = test system: HCT-15 colon
HOP-62 NSCLC = test system: HOP-62 NSCLC
UO-31 renal = test system: UO-31 renal
RXF 393 renal = test system: RXF 393 renal
SNB-75 CNS = test system: SNB-75 CNS
DU-145 prostate = test system: DU-145 prostate
SN12C renal = test system: SN12C renal
HT29 colon = test system: HT29 colon
LOX IMVI melanoma = test system: LOX IMVI melanoma
HCC-2998 colon = test system: HCC-2998 colon
NCI-H522 lung = test system: NCI-H522 lung
SNB-19 CNS = test system: SNB-19 CNS
KM12 colon = test system: KM12 colon

## CCOC(=O)c1c(NC(=O)c2ccc(C(F)(F)F)cc2)sc2c(CN3CCN(C)CC3)c(O)ccc12
MCF7 breast
  GI50: 1820 nM
  TGI: 3650 nM
SK-OV-3 ovarian
  GI50: 1930 nM
  TGI: 4210 nM
MOLT-4 leukemia
  GI50: 1740 nM
  TGI: 4000 nM
SK-MEL-28 melanoma
  GI50: 1730 nM
  TGI: 3160 nM
HCT-116 colon
  GI50: 1680 nM
  TGI: 3340 nM
HS 578T breast
  GI50: 1990 nM
  TGI: 4520 nM
OVCAR-5 ovarian
  GI50: 1770 nM
  TGI: 3190 nM
HL-60(TB) leukemia
  GI50: 1780 nM
  TGI: 3940 nM
NCI-H23 lung
  GI50: 2110 nM
  TGI: 4730 nM
NCI-H460 lung
  GI50: 1770 nM
  TGI: 3380 nM
A498 renal
  GI50: 1630 nM
  TGI: 3300 nM
IGROV1 ovarian
  GI50: 1790 nM
  TGI: 3470 nM
SK-MEL-5 melanoma
  GI50: 3030 nM
  TGI: 10100 nM
HOP-92 NSCLC
  GI50: 1360 nM
  TGI: 3110 nM
UACC-257 melanoma
  GI50: 2120 nM
  TGI: 4980 nM
T-47D breast
  GI50: 1840 nM
  TGI: 4540 nM
OVCAR-3 ovarian
  GI50: 1750 nM
  TGI: 3170 nM
SW-620 colon
  GI50: 1710 nM
  TGI: 3200 nM
MDA-MB-435
  GI50: 1730 nM
  TGI: 3120 nM
SF-295 CNS
  GI50: 1940 nM
  TGI: 3980 nM
CCRF-CEM leukemia
  GI50: 1950 nM
  TGI: 4770 nM
SF-539 CNS
  GI50: 1630 nM
  TGI: 3020 nM
MALME-3M melanoma
  GI50: 1990 nM
  TGI: 4280 nM
BT-549 breast
  GI50: 1850 nM
  TGI: 4150 nM
COLO 205 colon
  GI50: 1870 nM
  TGI: 3760 nM
OVCAR-4 ovarian
  GI50: 2050 nM
  TGI: 4430 nM
NCI-H226 lung
  GI50: 1950 nM
  TGI: 4070 nM
NCI/ADR-RES ovarian
  GI50: 1920 nM
  TGI: 3830 nM
ACHN renal
  GI50: 1810 nM
  TGI: 3210 nM
PC-3 prostate
  GI50: 1690 nM
  TGI: 3220 nM
OVCAR-8 ovarian
  GI50: 2140 nM
  TGI: 4770 nM
786-0 renal
  GI50: 1550 nM
  TGI: 3320 nM
CAKI-1 renal
  GI50: 1650 nM
  TGI: 3160 nM
MDA-MB-231 breast
  GI50: 1860 nM
  TGI: 3560 nM
SR leukemia
  GI50: 1110 nM
  TGI: 3420 nM
A549 NSCLC
  GI50: 1850 nM
  TGI: 3850 nM
K-562 leukemia
  GI50: 1130 nM
  TGI: 5860 nM
U251 CNS
  GI50: 1790 nM
  TGI: 3370 nM
TK-10 renal
  GI50: 1620 nM
  TGI: 3160 nM
SF-268 CNS
  GI50: 1870 nM
  TGI: 4010 nM
UACC-62 melanoma
  GI50: 1790 nM
  TGI: 3590 nM
EKVX NSCLC
  GI50: 2620 nM
  TGI: 8150 nM
SK-MEL-2 melanoma
  GI50: 2210 nM
  TGI: 5000 nM
RPMI-8226 leukemia
  GI50: 1730 nM
  TGI: 3950 nM
HCT-15 colon
  GI50: 1740 nM
  TGI: 3500 nM
HOP-62 NSCLC
  GI50: 1820 nM
  TGI: 3990 nM
UO-31 renal
  GI50: 1510 nM
  TGI: 2950 nM
RXF 393 renal
  GI50: 1590 nM
  TGI: 3810 nM
SNB-75 CNS
  GI50: 2050 nM
  TGI: 4920 nM
DU-145 prostate
  GI50: 1970 nM
  TGI: 3790 nM
SN12C renal
  GI50: 1760 nM
  TGI: 3440 nM
HT29 colon
  GI50: 1830 nM
  TGI: 3680 nM
LOX IMVI melanoma
  GI50: 1780 nM
  TGI: 3190 nM
HCC-2998 colon
  GI50: 1710 nM
  TGI: 3230 nM
NCI-H522 lung
  GI50: 2190 nM
  TGI: 5560 nM
SNB-19 CNS
  GI50: 1790 nM
  TGI: 3480 nM
KM12 colon
  GI50: 1790 nM
  TGI: 3340 nM
